In US20260001876A1, “Compounds and Their Use as PDE4 Activators” (Mironid Limited, priority 2022, published 2026):

What was measured:
[1] = target: T1, full-length human PDE4D5 (long isoform) (Homo sapiens, UniProt Q08499); assay: PDE assay ([3H]cAMP hydrolysis) with PDE4D5 cell lysate cytosol fraction; assay type: biochemical; conditions: 100 μM test compound; mean % increase in counts over basal activity
T1 construct: cell lines that stably expressed the full-length human PDE4 long isoforms and the full length human PDE4B2 short isoform; made in house; cytosol fraction of the cell lysate, not purified
T1 sequence (Q08499 1-745 isoform Q08499-6): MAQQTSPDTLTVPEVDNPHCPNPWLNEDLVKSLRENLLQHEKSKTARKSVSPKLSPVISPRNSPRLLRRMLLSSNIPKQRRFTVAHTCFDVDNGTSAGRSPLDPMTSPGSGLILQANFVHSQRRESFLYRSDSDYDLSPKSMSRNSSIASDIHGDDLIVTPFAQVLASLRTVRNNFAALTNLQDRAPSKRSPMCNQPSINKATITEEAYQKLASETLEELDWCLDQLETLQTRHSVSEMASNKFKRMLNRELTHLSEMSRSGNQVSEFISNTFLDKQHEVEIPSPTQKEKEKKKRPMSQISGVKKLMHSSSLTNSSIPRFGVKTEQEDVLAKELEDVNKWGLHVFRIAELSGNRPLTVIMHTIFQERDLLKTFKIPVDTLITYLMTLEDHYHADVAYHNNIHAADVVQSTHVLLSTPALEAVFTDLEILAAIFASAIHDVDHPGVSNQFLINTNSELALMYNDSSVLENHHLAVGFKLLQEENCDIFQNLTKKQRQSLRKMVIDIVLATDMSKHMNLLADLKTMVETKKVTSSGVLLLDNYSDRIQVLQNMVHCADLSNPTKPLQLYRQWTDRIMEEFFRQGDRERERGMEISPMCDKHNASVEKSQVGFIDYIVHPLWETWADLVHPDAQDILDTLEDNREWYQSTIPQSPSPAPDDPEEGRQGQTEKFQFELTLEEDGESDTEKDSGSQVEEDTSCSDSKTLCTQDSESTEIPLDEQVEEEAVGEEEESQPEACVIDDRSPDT
Procedure: (§1) HEK 293 and MDCK cells (Public Health England, Cell Culture Collections) were maintained in Dulbecco's Modified Eagle's Medium (DMEM) supplemented with 10% (v/v) fetal bovine serum (FBS) (Seralab), 2 mM L-glutamine and 100 U/mL penicillin streptomycin cocktail (ThermoFisher); termed complete media. Clonal HEK 293 cell lines were maintained in complete media supplemented with 0.6 mg/ml G418 (Enzo Life Sciences). Mouse inner medullary collecting duct (m-IMCD3) cells [American Type Culture Collection (ATCC)] were maintained in media consisting of DMEM/Hams F-12 50/50 Mix (DMEM F12; Corning) supplemented with penicillin streptomycin cocktail (100 U/mL) and FBS (10% v/v) (DMEM F12-10% FBS).
(§2) Experiment 1: Measurement of Modulation of Enzyme Activity by PDE4 Long Form Activators of the Present Invention Using Full-Length Human PDE4 Isoforms; Long Forms PDE4D5, PDE4C3, PDE4B1 and Short Form PDE4B2
(§3) (Marchmont, R. J. and Houslay, M. D. Biochem. J. 187:381-92, 1980)
(§4) Exogenous expression of long form PDE4 enzymes and stable cell line generation For transient transfection of exogenous PDE4 long isoforms, HEK 293 cells were transfected with pcDNA3.1 or pDEST™ PDE4 expression vectors using Lipofectamine LTX/Plus reagent (Invitrogen) as outlined by the manufacturer.
(§5) Where stable cell lines were generated the clonal isolates were expanded to obtain cell lines that stably expressed the full-length human PDE4 long isoforms and the full length human PDE4B2 short isoform. These were called the HEK-PDE4D5, HEK-PDE4B1 and HEK-PDE4B2 cell lines, respectively.
(§6) Lysate Preparation (Using PDE4D5 as a Typical Example)
(§7) HEK-PDE4D5 cells were seeded out in 100 mm plates and incubated at 37° C. in an atmosphere of 5% CO2, 95% air. Cell lysates were prepared using KHEM buffer [50 mM KCl, 10 mM EGTA, 50 mM HEPES (pH 7.2), 1.92 mM MgCl2].
(§8) To prepare the cell lysates, the 100 mm plates containing the cells were placed on ice and washed with ice-cold PBS (phosphate buffered saline, pH 7.4). KHEM buffer (500 μL) was added to the cells. Cells were then scraped off the plate and triturated using a needle (BD Microlance™ 0.8, 40 mm). The lysed cells were then centrifuged at 2000 rpm for 10 minutes to remove cell debris and the supernatant (cell lysate containing recombinant PDE4D5) was transferred to a fresh tube and kept on ice.
(§9) Cytosol Fraction Preparation (Using PDE4D5 as a Typical Example)
(§10) The cell lysate containing recombinant PDE4D5 was transferred into a centrifuge tube and placed into an ultracentrifuge (BECKMAN COULTER) and spun at high speed (100,000g) for 30 minutes at 4° C. The cytosol fraction was then collected and its protein amount determined using a BCA protein assay.
(§11) PDE Assay—(Using PDE4D5 as a Typical Example)
(§12) PDE assays were performed in thin-walled V-bottomed 96-well plates. […]

[2] = target: T2, full-length human PDE4B2 (short isoform) (Homo sapiens, UniProt Q07343); assay: PDE assay ([3H]cAMP hydrolysis) with PDE4B2 cell lysate cytosol fraction; assay type: biochemical; conditions: 100 μM test compound; mean % increase in counts over basal activity
T2 construct: the full length human PDE4B2 short isoform; made in house; cytosol fraction of the cell lysate, not purified
T2 sequence (Q07343 1-564 isoform Q07343-2): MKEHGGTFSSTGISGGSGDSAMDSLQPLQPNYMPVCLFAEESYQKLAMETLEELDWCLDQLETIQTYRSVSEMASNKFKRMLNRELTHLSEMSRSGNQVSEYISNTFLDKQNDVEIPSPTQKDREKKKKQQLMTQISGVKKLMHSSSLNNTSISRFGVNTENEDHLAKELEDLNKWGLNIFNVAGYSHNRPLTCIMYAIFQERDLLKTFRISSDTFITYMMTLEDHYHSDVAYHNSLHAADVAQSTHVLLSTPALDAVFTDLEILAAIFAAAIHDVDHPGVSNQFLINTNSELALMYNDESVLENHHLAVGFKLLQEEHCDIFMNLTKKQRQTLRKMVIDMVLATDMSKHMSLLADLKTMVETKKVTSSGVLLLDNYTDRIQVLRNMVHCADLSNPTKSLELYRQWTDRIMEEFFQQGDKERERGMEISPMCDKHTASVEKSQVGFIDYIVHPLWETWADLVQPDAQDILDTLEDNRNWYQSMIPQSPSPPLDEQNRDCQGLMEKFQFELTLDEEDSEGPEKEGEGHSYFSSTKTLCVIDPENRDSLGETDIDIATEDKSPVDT
Procedure: as §1, §2, §3, §4, §5, §6, §7, §8, §9, §10, §11, §12

[3] = system: m-IMCD3 cells expressing PDE4 long forms; assay: cAMP levels in assay media of PGE2-stimulated m-IMCD3 3D cell culture; assay type: cell-based; conditions: Mus musculus, mIMCD3, compared to 100% for (DMSO + PGE2), read-out: cAMP level (% of PGE2-stimulated); for activity at 3 µM: 3 μM test compound
Procedure: as §1
Experiment 2: Reduction of CAMP Levels in m-IMCD3 Cell Culture Treated with PDE4 Long Form Activators
Activation of intracellular PDE4 long forms leads to a reduction of both intracellular CAMP and externalised cAMP (Omar et al., PNAS 116:13320-13329, 2019). This reduction may be measured in the cell culture media supernatant of 3D cystic cell cultures, such as in the m-IMCD3 cell cyst suppression assay described in Experiment 3.
Following the completion of the m-IMCD3 cell cyst suppression assay (Experiment 3), the CAMP levels in the assay media from individual or pooled assay wells was measured using a CAMP ELISA kit (Enzo Life Sciences) or a LANCE Ultra CAMP kit (PerkinElmer) according to the manufacturer's instructions.
Treatment with PDE4 long form activators reduced CAMP levels in PGE2-stimulated m-IMCD3 cell culture.

m-IMCD3 cells = assay: Inhibition of PGE2-stimulated in vitro cyst formation in m-IMCD3 cells (3D culture); assay type: cell-based; conditions: Mus musculus, mIMCD3, 144 h, mean cyst area, 100% for (DMSO + PGE2) and 0% for DMSO control, 6 days of culture; for activity at 10 µM: read-out: % Cyst area* after incubation with 10 μM test compound; for activity at 3 µM: read-out: % Cyst area* after incubation with 3 μM test compound
Method in brief: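 m-IMCD3 cells in a 3D collagen I/Matrigel matrix at 37 °C, 5% CO2 were dosed 18–24 h after plating with compound (0.1% DMSO) plus 100 nM PGE2, in quadruplicate, replenished after 2–3 days. On day 6, z-stack imaging measured mean cyst area, normalised to DMSO+PGE2 (100%) and DMSO alone (0%).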

SMILES | % increase in PDE4D5 (long isoform) activity at 100 μM* (%) [1] | % increase in PDE4B2 (short isoform) activity at 100 μM* [2] | activity at 3 µM [3] | activity at 10 µM (m-IMCD3 cells) | activity at 3 µM (m-IMCD3 cells) | activity at 10 µM ([3]; 10 μM test compound)
O=C(COc1ccc(F)cc1)N1CCc2nc(N3C4CCC3CNC4)ccc2C1 [Example 46, 1-(2-(3,8-diazabicyclo[3.2.1]octan-8-yl)-7,8-dihydro-1,6-naphthyridin-6(5H)-yl)-2-(4-fluorophenoxy)ethan-1-one] | 94% | 6% | 42% | – | – | –
O=C(Cc1ccc(F)cc1)N1CCc2nc(N3C4CCC3CNC4)ccc2C1 [Example 48, 1-(2-(3,8-diazabicyclo[3.2.1]octan-8-yl)-7,8-dihydro-1,6-naphthyridin-6(5H)-yl)-2-(4-fluorophenyl)ethan-1-one] | 31% | −9% | 57% | -5% | – | –
O=C(Cc1ccc(F)cc1)N1CCc2nc(N3C4CCC3CNC4)ncc2C1 [Example 139, 1-(2-(3,8-diazabicyclo[3.2.1]octan-8-yl)-7,8-dihydropyrido[4,3-d]pyrimidin-6(5H)-yl)-2-(4-fluorophenyl)ethan-1-one] | 28% | −1% | – | – | 1% | –
CCN1CC2CCC(C1)N2c1ccc2c(n1)CCN(S(=O)(=O)Cc1ccc(F)cc1)C2 [Example 159, 2-(3-ethyl-3,8-diazabicyclo[3.2.1]octan-8-yl)-6-((4-fluorobenzyl)sulfonyl)-5,6,7,8-tetrahydro-1,6-naphthyridine] | 35% | 2% | – | – | 1% | –
CCN1CCN(c2ccc3c(n2)CCN(C(=O)CC(C)(C)C)C3)CC1 [Example 150, 1-(2-(4-ethylpiperazin-1-yl)-7,8-dihydro-1,6-naphthyridin-6(5H)-yl)-3,3-dimethylbutan-1-one] | – | – | 49% | – | -1% | –
O=C(Cc1ccccc1)N1CCc2nc(N3CCNCC3)ncc2C1 [Example 134, 2-phenyl-1-(2-(piperazin-1-yl)-7,8-dihydropyrido[4,3-d]pyrimidin-6(5H)-yl)ethan-1-one] | – | – | 55% | – | 7% | –
O=C(CC1CCC(F)(F)CC1)N1CCc2nc(N3C4CCC3CNC4)ccc2C1 [Example 40, 1-(2-(3,8-diazabicyclo[3.2.1]octan-8-yl)-7,8-dihydro-1,6-naphthyridin-6(5H)-yl)-2-(4,4-difluorocyclohexyl)ethan-1-one] | – | – | – | 0% | – | 43%
O=C(CC1CCCC1)N1CCc2nc(C3CCNCC3)ccc2C1 [Example 114, 2-cyclopentyl-1-(2-(piperidin-4-yl)-7,8-dihydro-1,6-naphthyridin-6(5H)-yl)ethan-1-one] | – | – | 47% | -2% | – | –
